# “Also recorded” adds a separate entry of the source. Ends that are not written are not given here.
# Legend:
# Format in all cases: cell-based
# HCT116 cells [1] = experiment: ADP-ribose level by ELISA in HCT116 cells; conditions: 0.2-32 μM peptide, 24 hours
# Description: (§1) The peptides of Examples 1 to 28 of the present disclosure are designed to inhibit the action of poly ADP-ribose degradation enzyme. In Experimental Example 1, it was confirmed through cell experiments whether poly ADP-ribose was inhibited from being degraded by each of the peptides and accumulated in cancer cells.
# (§2) 5×10^5 HCT116 cells were divided into a group not treated with the peptide of Example and a group treated with 0.2, 1, 2, 4, 8, 16, and 32 μM of the peptide of Example 6 (SEQ ID NO: 6), and cultured for 24 hours under conditions of 37° C. and 5% CO2 in McCoy's 5A medium supplemented with 10% FBS, 100 units/ml penicillin, and 100 μg/ml streptomycin. The medium of the cultured cells was removed, and the samples were treated with RIPA buffer and 1% SDS. The prepared supernatant was used for ELISA analysis to detect and analyze ADP-ribose.
# HCT116 cells [2] = experiment: Cell viability (MTT, photomicrographs) in HCT116 cells; conditions: 16 μM peptide, 24 hours
# Description: (§3) After culturing 3×10^3 HCT116 cells in a 96-well plate for 24 hours under conditions of 37° C. and 5% CO2, the cells were either untreated or treated with the peptides of Examples 1 to 28 at a concentration of 16 μM, respectively. Then, the cells were cultured for 24 hours under conditions of 37° C. and 5% CO2, and 10 μl of 3-(4,5-dimethylthiazol-2-yl)-2,5-diphenyltetrazolium bromide reagent was added to each well, followed by reaction for 1 hour. After the reaction was completed, the reagent was removed, 200 μl of dimethyl sulfoxide was added to each well, and the absorbance was measured to confirm cell viability.
# MDA-MB-231 cells [3] = experiment: ADP-ribose level by ELISA in MDA-MB-231 cells; conditions: 0.2-32 μM peptide, 24 hours
# Description: as §1
# 5×10^3 MDA-MB-231 cells were divided into a group not treated with the Example peptide and a group treated with 0.2, 1, 2, 4, 8, 16, and 32 μM of the peptide of Example 5 (SEQ ID NO: 5), and cultured for 24 hours under conditions of 37° C. and 5% CO2 in Leibovitz's L-15 medium supplemented with 10% FBS, 100 units/ml penicillin, and 100 μg/ml streptomycin. The medium of the cultured cells was removed, and the samples were treated with RIPA buffer and 1% SDS. The prepared supernatant was used for ELISA analysis to detect and analyze ADP-ribose.
# MDA-MB-231 cells [4] = experiment: Cell viability (MTT, photomicrographs) in MDA-MB-231 cells; conditions: 16 μM peptide, 24 hours
# Description: as §3, with “culturing 3×10^3 MDA-MB-231 cells in” for “culturing 3×10^3 HCT116 cells in”, “and 5% C02, the cells” for “and 5% CO2, the cells”
# H1975 cells = experiment: Viability of H1975 cells, osimertinib alone or combined with peptides; conditions: Homo sapiens, NCI-H1975, 1 nM osimertinib alone, 24 hours, read-out: viable cancer cells
# Description: as §3, with “H1975” for “HCT116”, “treated with 1 nM osimertinib alone” for “either untreated”, “in combination” for “treated”, “14” for “28”, “0.2, 1 or 8 μM.” for “16 μM, respectively.”
# MDA-MB-231 cells [5] = experiment: Viability of MDA-MB-231 cells, docetaxel alone or combined with peptides; conditions: 50 μM docetaxel alone, 24 hours
# Description: as §3, with “3×10^3 MDA-MB-231” for “3×10^3 HCT116”, “were treated with 50 μM docetaxel alone” for “were either untreated”, “or in combination” for “or treated”, “Examples 15” for “Examples 1”, “of 0.2, 1 or 8 μM.” for “of 16 μM, respectively.”, “CO2,” for “CO2, and”
# Aspc-1 cells = experiment: Viability of Aspc-1 cells, gemcitabine alone or combined with peptides; conditions: 1 nM gemcitabine alone, 24 hours
# Description: as §3, with “3×10^3 Aspc-1” for “3×10^3 HCT116”, “were treated with 1 nM gemcitabine alone” for “were either untreated”, “or in combination” for “or treated”, “Examples 15” for “Examples 1”, “of 0.2, 1 or 8 μM.” for “of 16 μM, respectively.”
# CCD-18Co = experiment: Cytotoxicity in normal cells CCD-18Co; conditions: CCD-18Co human colon fibroblast, 25, 50 and 100 μM, 24, 48 or 72 hours; listed as SEQ ID NO: 7
# Description: (§4) As normal cells for testing, CCD-18Co, which is a human colon fibroblast, and HDPC, which is a human dermal papilla cell, were used. Further, the peptide of SEQ ID NO: 7 was used as a representative peptide of Examples of the present disclosure.
# (§5) First, 5×10^3 cells of each normal cell were inoculated into a 96-well plate and cultured in DMEM medium for 24 hours under conditions of 37° C. and 5% CO2. The respective wells were divided into a group untreated with the peptide and groups treated with the peptide of SEQ ID NO: 7 (25, 50, and 100 μM, respectively), and tested.
# HDPC = experiment: Cytotoxicity in normal cells HDPC; conditions: HDPC human dermal papilla cell, 25, 50 and 100 μM, 24, 48 or 72 hours; listed as SEQ ID NO: 7
# Description: as §4, §5
# Caki-1 cells [6] = experiment: ADP-ribose level by ELISA in Caki-1 cells; conditions: 0.2-32 μM peptide, 24 hours
# Description: as §1
# as §2, with “5×10^5 Caki-1” for “5×10^5 HCT116”, “Example 7” for “Example 6”, “NO: 7),” for “NO: 6),”
# Caki-1 cells [7] = experiment: Cell viability (MTT, photomicrographs) in Caki-1 cells; conditions: 16 μM peptide, 24 hours
# Description: as §3, with “Caki-1” for “HCT116”
# Hep G2 cells [8] = experiment: ADP-ribose level by ELISA in Hep G2 cells; conditions: 0.2-32 μM peptide, 24 hours
# Description: as §1
# as §2, with “5×10^5 Hep G2” for “5×10^5 HCT116”, “Example 4” for “Example 6”, “NO: 4),” for “NO: 6),”, “in EMEM” for “in McCoy's 5A”
# Hep G2 cells [9] = experiment: Cell viability (MTT, photomicrographs) in Hep G2 cells; conditions: 16 μM peptide, 24 hours
# Description: 2-4. Change in viability in Hep G2 cells according to treatment with ADP-ribose binding peptide After culturing 3×10^3 Hep G2 cells in a 96-well plate for 24 hours under conditions of 37° C. and 5% CO2, the cells were either untreated or treated with the peptides of Examples 1 to 28 at a concentration of 16 μM, respectively. Then, the cells were cultured for 24 hours under conditions of 37° C. and 5% CO2, and 10 μl of 3-(4,5-dimethylthiazol-2-yl)-2,5-diphenyltetrazolium bromide reagent was added to each well, followed by reaction for 1 hour. After the reaction was completed, the reagent was removed, 200 μl of dimethyl sulfoxide was added to each well, and the absorbance was measured to confirm cell viability.
# U-87MG cells = experiment: Viability of U-87MG cells, bevacizumab alone or combined with peptides; parameters: dose or concentration left out as unconfirmed; conditions: bevacizumab alone, 24 hours
# Description: as §3, with “U-87MG” for “HCT116”, “treated with 18 mM of bevacizumab alone” for “either untreated”, “in combination” for “treated”, “14” for “28”, “0.2, 1 or 8 μM.” for “16 μM, respectively.”
compound,measurement,setting,value
FSYVIDENTMGQINRQTQRQRRVRR [Example 6],amount of increase in ADP-ribose (fold change) compared to the control group,HCT116 cells [1],significant increase in the amount of ADP-ribose in a concentration-dependent manner
same,cancer cell growth and survival,HCT116 cells [2],inhibited from growing and killed
FCYLIYFNSMSQMNRQTRRRRRLRR (ADP-ribose binding peptide) [Example 5],amount of increase in ADP-ribose (fold change) compared to the control group,MDA-MB-231 cells [3],significant increase in the amount of ADP-ribose in a concentration-dependent manner
same,cancer cell growth and survival,MDA-MB-231 cells [4],inhibited from growing and killed
C=CC(=O)Nc1cc(Nc2nccc(-c3cn(C)c4ccccc34)n2)c(OC)cc1N(C)CCN(C)C [osimertinib],viability at 0.001 µM,H1975 cells,~49%
CC(=O)O[C@@]12CO[C@@H]1C[C@H](O)[C@@]1(C)C(=O)[C@H](O)C3=C(C)[C@@H](OC(=O)[C@H](O)[C@@H](NC(=O)OC(C)(C)C)c4ccccc4)C[C@@](O)([C@@H](OC(=O)c4ccccc4)[C@H]21)C3(C)C [docetaxel],cancer cells survived,MDA-MB-231 cells [5],about 52%
GRYDVHLGERMRYAVYWDELASEVRR (ADP-ribose binding peptide) [Example 13],amount of increase in ADP-ribose (fold change) compared to the control group,HCT116 cells [1],significant increase in the amount of ADP-ribose in a concentration-dependent manner
same,cancer cell growth and survival,HCT116 cells [2],inhibited from growing and killed
Nc1ccn([C@@H]2O[C@H](CO)[C@@H](O)C2(F)F)c(=O)n1 [gemcitabine],cancer cells survived,Aspc-1 cells,about 50%
FSYKIDFAEMKQMNLTTGKQRLIKR [Example 7],cytotoxicity to normal cells versus untreated control,CCD-18Co,no significant difference; also recorded: no toxicity was shown
same,cytotoxicity to normal cells versus untreated control,HDPC,no significant difference; also recorded: no toxicity was shown
TAYEASVCDYLEQQVARGN (ADP-ribose binding peptide) [Example 14],amount of increase in ADP-ribose (fold change) compared to the control group,Caki-1 cells [6],significant increase in the amount of ADP-ribose in a concentration-dependent manner
same,cancer cell growth and survival,Caki-1 cells [7],inhibited from growing and killed
RHYTVNLNTYTATDTKGHSLSVQR (ADP-ribose binding peptide) [Example 12],amount of increase in ADP-ribose (fold change) compared to the control group,MDA-MB-231 cells [3],significant increase in the amount of ADP-ribose in a concentration-dependent manner
same,cancer cell growth and survival,MDA-MB-231 cells [4],inhibited from growing and killed
RVYTIDENSMQQINEDTGTARAIQR (RVYTIDFNSMQQINEDTGTARAIQR; ADP-ribose binding peptide) [Example 4],amount of increase in ADP-ribose (fold change) compared to the control group,Hep G2 cells [8],significant increase in the amount of ADP-ribose in a concentration-dependent manner
same,cancer cell growth and survival,Hep G2 cells [9],inhibited from growing and killed
bevacizumab,viable cancer cells,U-87MG cells,about 49%
FLYVADLENMVQYRRNEHGRRRKIKR (ADP-ribose binding peptide) [Example 11],amount of increase in ADP-ribose (fold change) compared to the control group,Hep G2 cells [8],significant increase in the amount of ADP-ribose in a concentration-dependent manner
same,cancer cell growth and survival,Hep G2 cells [9],inhibited from growing and killed

# Reference: patent US20230416316A1, “ADP-RIBOSE BINDING PEPTIDES WITH ANTI-CANCER ACTIVITY AND USE THEREOF” (PearlsInMires Co., Ltd., priority 2021, published 2023)
